According to patent publication US20160021873A1, “STEM CELL PRESERVATION MEDIUM, STEM CELL PRESERVATION METHOD, AND STEM CELL PRESERVATION SYSTEM” (KYOKUTO PHARMACEUTICAL INDUSTRIAL CO., LTD., priority 2012, published 2016):

System: human iPS cells
Test: survival rate on ROCK inhibitor (+) versus (-) cultivation after thawing
Format: cell-based
Details: 10 μM Y-27632 for two days then three days without; rapid thawing with warm culture medium; ROCK inhibitor (-) cultivation about 30%
Procedure: Cultivation and freezing in the stem cell preservation method were carried out by procedures similar to those of Embodiment 2. Regarding thawing, after a warm culture medium was used to conduct rapid thawing, difference of survival rate was measured depending on whether the ROCK inhibitor 10 μM Y-27632 was added or not. Where the inhibitor was added, in the presence of Y-27632, cultivation was performed for two days, thereafter, cultivation was performed additionally for three days in a culture medium free of Y-27632. On the other hand, where no inhibitor was added, cultivation was performed for five days in a normal culture medium. On both the cultivation, a survival rate was measured according to the method described in Embodiment 2.

`C[C@@H](N)[C@H]1CC[C@H](C(=O)Nc2ccncc2)CC1` [ROCK inhibitor, Y-27632] was tested, and the survival rate was “about 120%”.
